From ChEMBL document CHEMBL1201862, “PubChem BioAssay data set” (2004)
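Tested at 5 concentrations; 48 h exposure; 96-well plates; endpoints linearly interpolated, else capped at highest concentration. GI50: concentration for 50% inhibition of growth.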 Activity calls are given as the source filed them. Rule as the data show it: active = GI50 up to about 1.1 µM and inactive = higher.

Assays:
Test in all cases: growth of human tumour cells (NCI), 48 h
IGROV-1 = system: IGROV-1
KM12 = system: KM12
SK-MEL-2 = system: SK-MEL-2
MDA-N = system: MDA-N
SF-268 = system: SF-268
HCT-15 = system: HCT-15
RXF 393 = system: RXF 393
NCI-H23 = system: NCI-H23
OVCAR-8 = system: OVCAR-8
SNB-19 = system: SNB-19
SW-620 = system: SW-620
OVCAR-5 = system: OVCAR-5
SK-MEL-28 = system: SK-MEL-28
HOP-62 = system: HOP-62
HCC 2998 = system: HCC 2998
OVCAR-3 = system: OVCAR-3
T47D = system: T47D
HT-29 = system: HT-29
OVCAR-4 = system: OVCAR-4
SNB-75 = system: SNB-75

Row | Structure (SMILES) | GI50 (IGROV-1) | GI50 (KM12) | GI50 (SK-MEL-2) | GI50 (MDA-N) | GI50 (SF-268) | GI50 (HCT-15) [µM] | GI50 (RXF 393) | GI50 (NCI-H23) | GI50 (OVCAR-8) | GI50 (SNB-19) | GI50 (SW-620) | GI50 (OVCAR-5) | GI50 (SK-MEL-28) | GI50 (HOP-62) | GI50 (HCC 2998) | GI50 (OVCAR-3) | GI50 (T47D) | GI50 (HT-29) | GI50 (OVCAR-4) | GI50 (SNB-75)
1 | O=C(O)COCC(=O)N(CCOCCN(Cc1ccccc1)C(=O)COCC(=O)O)Cc1ccccc1 | > 100 µM (inactive) | > 100 µM (inactive) | > 100 µM (inactive) | > 100 µM (inactive) | > 100 µM (inactive) | > 100 | > 100 µM (inactive) | > 100 µM (inactive) | > 100 µM (inactive) | > 100 µM (inactive) | > 100 µM (inactive) | > 100 µM (inactive) | > 100 µM (inactive) | > 100 µM (inactive) | > 100 µM (inactive) | > 100 µM (inactive) | > 100 µM (inactive) | > 100 µM (inactive) |  | 
2 | CC(C)c1c(O)c(O)c2c(c1O)C(=O)C(O)=C1C(C)(C)CCC[C@@]12C | 3.73 µM (inactive) | 3.44 µM (inactive) | 3.76 µM (inactive) |  | 4.76 µM (inactive) | 3.66 | 2.86 µM (inactive) | 2.92 µM (inactive) | 2.71 µM (inactive) | 4.76 µM (inactive) | 3.29 µM (inactive) | 5.18 µM (inactive) | 5.85 µM (inactive) | 8.61 µM (inactive) | 3.37 µM (inactive) | 3.13 µM (inactive) | 3.24 µM (inactive) | 2.94 µM (inactive) | 3.26 µM (inactive) | 3.05 µM (inactive)
3 | NS(=O)(=O)c1cc2c(cc1Cl)NCNS2(=O)=O [HYDROCHLOROTHIAZIDE] | > 100 µM (inactive) | > 100 µM (inactive) | > 100 µM (inactive) | > 100 µM (inactive) | > 100 µM (inactive) | > 100 |  | > 100 µM (inactive) | > 100 µM (inactive) | > 100 µM (inactive) | > 100 µM (inactive) | > 100 µM (inactive) | > 100 µM (inactive) | > 100 µM (inactive) | > 100 µM (inactive) | > 100 µM (inactive) | > 100 µM (inactive) | > 100 µM (inactive) | > 100 µM (inactive) | > 100 µM (inactive)
4 | Brc1ccc(C2C3CSc4ccccc4C3=NN2c2ccccc2)cc1 (stereo unspecified) | 74.8 µM (inactive) | 44.5 µM (inactive) | > 100 µM (inactive) | > 100 µM (inactive) | 70.1 µM (inactive) | 39.6 | > 100 µM (inactive) | > 100 µM (inactive) | 62.1 µM (inactive) | > 100 µM (inactive) | 34.7 µM (inactive) |  | 67.5 µM (inactive) | > 100 µM (inactive) |  | > 100 µM (inactive) | 14.3 µM (inactive) | 78.2 µM (inactive) | 7.62 µM (inactive) | 69 µM (inactive)
5 | CC(C)c1nc2c(Cl)c3ncccc3cc2[nH]c1=O | 14.8 µM (inactive) | 80.4 µM (inactive) | > 100 µM (inactive) | > 100 µM (inactive) | 34.1 µM (inactive) | 74 | > 100 µM (inactive) | 80.2 µM (inactive) | 29.2 µM (inactive) | > 100 µM (inactive) | > 100 µM (inactive) | > 100 µM (inactive) | > 100 µM (inactive) | 32.7 µM (inactive) |  | > 100 µM (inactive) | 70.5 µM (inactive) | > 100 µM (inactive) | 67.8 µM (inactive) | 26.4 µM (inactive)
6 | Cc1ccc(C2(N3CCCC3)OC(C)(C)c3cccc4cccc2c34)cc1 (stereo unspecified) | 15.9 µM (inactive) | 27.9 µM (inactive) | 14.7 µM (inactive) | 16.2 µM (inactive) | 12.9 µM (inactive) | 15.6 | 13.5 µM (inactive) | 16.2 µM (inactive) | 15.2 µM (inactive) | 16.3 µM (inactive) | 16 µM (inactive) | 15.8 µM (inactive) |  | 16 µM (inactive) |  | 14.9 µM (inactive) | 16.3 µM (inactive) | 13.4 µM (inactive) | 14.5 µM (inactive) | 13.5 µM (inactive)
7 | COc1cc2c(cc1OC)[C@H](C)N1CCc3cc(OC)c(OC)cc3[C@@H]1C2 | > 100 µM (inactive) | > 100 µM (inactive) | > 100 µM (inactive) | > 100 µM (inactive) | > 100 µM (inactive) | > 100 |  | > 100 µM (inactive) | > 100 µM (inactive) | > 100 µM (inactive) | > 100 µM (inactive) | > 100 µM (inactive) | > 100 µM (inactive) |  | > 100 µM (inactive) | > 100 µM (inactive) | > 100 µM (inactive) | > 100 µM (inactive) | > 100 µM (inactive) | > 100 µM (inactive)
8 | CC(=O)O[C@H]1/C(=C/c2ccc(N(C)C)cc2)C[C@H]2[C@@H]3CC=C4C[C@@H](N5CCCC5)CC[C@]4(C)[C@H]3CC[C@]12C | > 100 µM (inactive) |  | > 100 µM (inactive) |  | > 100 µM (inactive) | > 100 | > 100 µM (inactive) | > 100 µM (inactive) | > 100 µM (inactive) | > 100 µM (inactive) | > 100 µM (inactive) | > 100 µM (inactive) | > 100 µM (inactive) | > 100 µM (inactive) |  | > 100 µM (inactive) | 65.6 µM (inactive) | 63.2 µM (inactive) |  | > 100 µM (inactive)
9 | O=C(Sc1c(-c2ccccc2)c(=O)n(-c2ccccc2)c(=S)n1-c1ccccc1)c1cccs1 | 49.7 µM (inactive) | > 100 µM (inactive) | 53 µM (inactive) | 70 µM (inactive) | > 100 µM (inactive) | 34.7 |  | > 100 µM (inactive) | 73.3 µM (inactive) | > 100 µM (inactive) | 24.6 µM (inactive) | > 100 µM (inactive) | > 100 µM (inactive) | > 100 µM (inactive) |  | > 100 µM (inactive) | > 100 µM (inactive) | 72.3 µM (inactive) | > 100 µM (inactive) | 29.6 µM (inactive)
10 | Cc1csc(NC23CC4CC(CC(C4)C2)C3)[n+]1C(P(=O)([O-])O)P(=O)(O)O (stereo unspecified) | > 100 µM (inactive) | > 100 µM (inactive) |  | > 100 µM (inactive) | > 100 µM (inactive) | > 100 | > 100 µM (inactive) | > 100 µM (inactive) | > 100 µM (inactive) | > 100 µM (inactive) | > 100 µM (inactive) | > 100 µM (inactive) | > 100 µM (inactive) | > 100 µM (inactive) | > 100 µM (inactive) | > 100 µM (inactive) |  | > 100 µM (inactive) |  | > 100 µM (inactive)
11 | O=C(NNC(=O)c1cc2ccccc2[nH]1)c1cc2ccccc2[nH]1 | > 100 µM (inactive) | > 100 µM (inactive) | > 100 µM (inactive) | > 100 µM (inactive) | > 100 µM (inactive) | > 100 | > 100 µM (inactive) |  | > 100 µM (inactive) | > 100 µM (inactive) | > 100 µM (inactive) | > 100 µM (inactive) | > 100 µM (inactive) | > 100 µM (inactive) |  | > 100 µM (inactive) | > 100 µM (inactive) | > 100 µM (inactive) | > 100 µM (inactive) | > 100 µM (inactive)
12 | COC(=O)C1(Cc2ccccc2)Cc2ccccc2C1 | 28.4 µM (inactive) | 21.8 µM (inactive) | 11.5 µM (inactive) | 17.3 µM (inactive) | 23.1 µM (inactive) | 26.1 |  | 23.2 µM (inactive) | 22.8 µM (inactive) |  | 35 µM (inactive) | 31.8 µM (inactive) | 26.9 µM (inactive) | 32.1 µM (inactive) | 29.6 µM (inactive) | > 10 µM (inactive) | 21.5 µM (inactive) | 20.4 µM (inactive) | 22.4 µM (inactive) | 23.3 µM (inactive)
13 | O=C1c2ccccc2-c2ccc(NC(=O)C3CCCCC3C(=O)O)cc21 (stereo unspecified) | > 100 µM (inactive) | > 100 µM (inactive) | > 100 µM (inactive) | > 100 µM (inactive) | > 100 µM (inactive) | > 100 | > 100 µM (inactive) | > 100 µM (inactive) | > 100 µM (inactive) | > 100 µM (inactive) | > 100 µM (inactive) | > 100 µM (inactive) | > 100 µM (inactive) | > 100 µM (inactive) |  | > 100 µM (inactive) | > 100 µM (inactive) | 87.3 µM (inactive) | > 100 µM (inactive) | > 100 µM (inactive)
14 | CCOc1nc(-c2ccccc2)cc(-c2ccc(N3CCOCC3)cc2)c1C#N | > 100 µM (inactive) | > 100 µM (inactive) | > 100 µM (inactive) | > 100 µM (inactive) | > 100 µM (inactive) | > 100 | > 100 µM (inactive) | > 100 µM (inactive) | > 100 µM (inactive) | > 100 µM (inactive) | > 100 µM (inactive) | > 100 µM (inactive) | > 100 µM (inactive) | > 100 µM (inactive) | > 100 µM (inactive) | > 100 µM (inactive) |  | > 100 µM (inactive) | > 100 µM (inactive) | > 100 µM (inactive)
15 | CC[C@]1(Cc2ccc(OC)c(OC)c2)[C@@H]2C[C@@H](C3OCCO3)ON2O[C@H](OC2CCCC2(c2ccccc2)c2ccccc2)[C@@H]1OC(C)=O (stereo partly specified) | 23.3 µM (inactive) | 15.6 µM (inactive) | 15.7 µM (inactive) | 36.1 µM (inactive) | 19.9 µM (inactive) | 14.5 |  | 21 µM (inactive) | 24.9 µM (inactive) | 18.1 µM (inactive) | 33 µM (inactive) | 17.9 µM (inactive) | 20.5 µM (inactive) | 19.6 µM (inactive) |  | 12.7 µM (inactive) | 18.7 µM (inactive) | 23.5 µM (inactive) |  | 24 µM (inactive)
